Source: patent publication US10980769B2, “Tiglien-3-one derivatives” (QBIOTICS PTY LTD, priority 2005, dated 2021)

Columns and labels:
[1] = tested on: Haemonchus contortus; assay: NemaTOX (Ne) anthelmintic larval development bioassay
Method: NemaTOX (alternatively referred to herein as Ne) is an anthelmintic bioassay, applicable to all parasitic nematodes with free-living life cycle stages, and can be used as a screen to detect activity and define the species spectrum of compounds against parasitic nematodes and examine the impact of pre-existing resistance to other anthelmintic classes on potency. Haemonchus contortus was utilised for this assay.
The effect on larval development was determined in this assay by the method described by Gill et al. (1995) Int. J. Parasitol. 25: 463-470. Briefly, in this assay nematode eggs were applied to the surface of an agar matrix containing the test sample and allowed to develop through to the L3, infective stage (6 days). At this time the stage of larval development reached and any unusual features (deformity, paralysis, toxicity) were noted by microscopic examination.

[2] = tested on: MCF-7; assay: Cell scattering of cultured cells; format: cell-based, human
[3] = tested on: HOP62 lung; assay: Growth inhibition of cultured cells; format: cell-based; conditions: human lung H0P62
Method: (§1) Briefly, a range of tumour cells including mouse melanoma, human melanoma, mouse squamous cell carcinoma, human breast, human colon, human leukemia and human lung and normal human cells including normal human fibroblasts were seeded at 2-5,000 per microtitre well (96-well plate) in 10% FCS-RPMI 1640 culture medium, treated, and allowed to grow until the controls were nearly confluent (5-6 days). The wells were then washed twice with PBS, fix with ethanol for a minimum of 5 minutes and washed with water. SRB solution (50 μL of 0.4% in 1% acetic acid) was added and left at room temperature for a minimum of 15 minutes. The plate was washed rapidly with tap water and then twice with 1% acetic acid. After addition of 100 μL/well of 10 mM Tris base (unbuffered, pH>9), plates were left for a minimum of 5 minutes, then the absorbance was read at 564 nm on the ELISA reader, with a 3 second prior shaking. After subtraction of a blank (wells with no cells, absorbance typically about 0.04), growth inhibition was calculated as % of the untreated control and plotted against dose.
(§2) Briefly, a suspension of a range of tumour cells including mouse melanoma, human melanoma, mouse squamous cell carcinoma, human breast, human colon, human leukemia and human lung and normal human cells including normal human fibroblasts were seeded into round-bottom microtitre plates in 10% FCS-RPMI 1640 culture medium, treated and allowed to grow for 5-6 days. To measure cell growth, 20 μL of a combined MTS/PMS solution (Promega Cell ProliferationAssay Kit Cat #G5430) was added to each well of the 96 well assay plate. After 1-4 hours the plates were placed in the ELISA plate reader and the absorbance read at 490 nm. After subtraction of a blank (wells with no cells, absorbance typically about 0.4), growth inhibition was calculated as % of the untreated control and plotted against dose.
(§3) For growth inhibition assays, cells (2000-5000/well) were seeded in 96-well plates in duplicate, treated with drug next day and allowed to grow for a further 5-6 days. The plates were then washed in PBS (phosphate buffered saline, pH 7.2), fixed with ethanol and stained by addition of 50 μL 0.4% SRB (sulforhodamine) in 1% acetic acid. The plate was left at room temperature for a minimum of 15 minutes, then washed rapidly with tap water and then twice with 1% acetic acid. After addition of 100 μL/well of 10 mM Tris base (unbuffered, pH>9), plates were left for a minimum of 5 minutes, then the absorbance was read at 564 nm on the ELISA reader, with a 3 second prior shaking. After subtraction of a blank (wells with no cells, typically about 0.04), growth inhibition was calculated as % of the untreated control and plotted against dose.

[4] = tested on: human leukemia K562; assay: Growth inhibition of cultured cells; format: cell-based
Method: as §1, §2, §3

[5] = tested on: D04 melanoma; assay: Growth inhibition of cultured cells; format: cell-based; conditions: human melanoma DO4
Method: as §1, §2, §3

[6] = tested on: human colon Colo205; assay: Growth inhibition of cultured cells; format: cell-based
Method: as §1, §2, §3

[7] = tested on: normal human fibroblasts (NFF); assay: Growth inhibition of cultured cells; format: cell-based
Method: as §1, §2, §3

[8] = tested on: human leukemia U937; assay: Growth inhibition of cultured cells; format: cell-based
Method: as §1, §2, §3

[9] = tested on: human breast MCF-7; assay: Growth inhibition of cultured cells; format: cell-based; conditions: human breast CF-7
Method: as §1, §2, §3

[10] = tested on: human melanoma MM96L; assay: Growth inhibition of cultured cells; format: cell-based
Method: as §1, §2, §3

[11] = tested on: human melanoma MM127; assay: Growth inhibition of cultured cells; format: cell-based
Method: as §1, §2, §3

[12] = tested on: human lung A549; assay: Growth inhibition of cultured cells; format: cell-based
Method: as §1, §2, §3

[13] = tested on: LK2 mouse SCC; assay: Topical treatment of LK2 mouse SCC tumours in nude mice; format: in vivo
Method: Tumour cells were injected subcutaneously (2 million cells/site in 50 μL culture medium for LK2 cells, 0.5 million for B16) into 4 sites each on the flanks of nude mice (for LK2 cells) or C57BL/6 mice (B16 mouse melanoma cells). When tumours became visible (2-4 mm diameter) five to 10 days after injection of cells, 37 μg of EBI-46 in 25 μL, of isopropanol gel was applied to each tumour site, each day for 3 days. Tumour size was measured with calipers at appropriate intervals.
Animal experiments were conducted under Queensland Institute of Medical Research (QIMR) Animal Ethics Committee approvals. The B16 mouse melanoma model was obtained by injecting 0.5 million B16 mouse melanoma cells subcutaneously into each of the 2 flanks of a male C57BL/6 mouse. The human tumour xenografts were obtained by injecting 2 million of the respective tumour cell line into each of 4 sites on the flanks of male nude mice (BALB/c background). EBI-46 was applied: (a) topically by dilution of a concentrated solution in acetone into an isopropanol gel, once a day for 3 days; (b) intralesionally by injection into the tumour of drug dissolved in 25% propylene glycol-0.1 M saline, (c) systemically by injection intraperitoneally in 25% propylene glycol in 0.1 M saline. Tumour size was measured with electronic callipers in mm and converted to volume (cubic mm) using the formula: Tumour volume=length×breadth×breadth/2. Results
The above was repeated using the UVB-induced mouse squamous cell carcinoma (SCC) grown on nude mice (FIG. 6) and treated with partially-purified EBI-46.
The most recent experiment with topical application used 2 different doses of EBI-46 (FIG. 7). The low dose was 100 μg/site and the high dose was 350 μg/site/treatment.

[14] = Solubility tests; format: physicochemical
Description: It requires a small amount of such solvents to form aqueous solutions. […] Higher solubilities may well be achieveable.

## C/C=C(\C)C(=O)OC1C(C)C2(O)C(C3OC3(CO)C(O)C3(O)C(=O)C(C)=CC32)C2C(C)(C)C12OC(=O)C(C)CC (stereo not shown) [EBI-46, 12-tigloyl-13-(2-methylbutanoyl)-6,7-epoxy-4,5,9,12,13,20-hexahydroxy-1-tiglian-3-one]
[1]
  Ne Titre: 2
[1]; Table 6a, last well with activity, real value may be lower
  Ne LD99: 31 pg/mL
[2]
  scattering of MCF-7 cells: cell scattering
[3]
  Concentration of EBI-46 at which growth inhibition was observed: <100 ng/mL
[4]
  Concentration of EBI-46 at which growth inhibition was observed: <100 ng/mL
[5]
  Concentration of EBI-46 at which growth inhibition was observed: <100 ng/mL
[6]
  Concentration of EBI-46 at which growth inhibition was observed: <100 ng/mL
[7]
  Concentration of EBI-46 at which growth inhibition was observed: None observed at 10 μg/mL
[8]
  Concentration of EBI-46 at which growth inhibition was observed: <100 ng/mL
[9]
  Concentration of EBI-46 at which growth inhibition was observed: <100 ng/mL
[10]
  Concentration of EBI-46 at which growth inhibition was observed: =/<2 μg/mL
[11]
  Concentration of EBI-46 at which growth inhibition was observed: <100 ng/mL
[12]
  Concentration of EBI-46 at which growth inhibition was observed: <100 ng/mL
[13]; 37 ug/site in isopropanol gel once a day for 3 days, nude mice
  tumours cured and healed without scarring: without scarring of 3 out of 4
[13]; 37 ug/site once a day for 3 days
  systemic toxicity or lung metastases on post mortem: no signs of systemic toxicity
[13]; high dose 350 μg/site/treatment
  tumour growth inhibition result: excellent result
[14]; 5 μg/mL in 99.9% water
  solubility: 100%
[14]; 50 μg/mL in 99% water
  solubility: 100%
[14]; 450 μg/mL in 90% water
  solubility: 100%
[14]; 25% propylene glycol-saline, 250 μg/mL
  solubility in vehicle: no sign of insolubility
[14]; PEG 400 containing 10% ethanol
  solubility in vehicle: freely soluble
[14]; acetone, alcohols and PEG 400
  solubility in organic solvents: highly soluble
